# Measured values taken from US5859030A, “Substituted arylalkylthioalkylthiopyridines for use in the control of helicobacter bacteria” (BYK Gulden Lomberg Chemische Fabrik GmbH, priority 1994, dated 1999).
# Counter-ions that a name gives are not always drawn.
# Tested on: Helicobacter pylori
# Test: Activity against Helicobacter pylori (agar growth inhibition, methodology of Iwahi et al.)
# Format: cell-based
# Details: 96 h, Columbia agar (Oxoid), growth period of 4 days, read-out: approx. MIC50
# From the text: The compounds of the formula I were investigated regarding their activity against Helicobacter pylori following the methodology described by Tomoyuki Iwahi et al. (Antimicrobial Agents and Chemotherapy, 1991, 490-496) using Columbia agar (Oxoid) and with a growth period of 4 days. The approx. MIC 50 values listed in the following Table A resulted here for the compounds investigated (the numbers of the compounds given agree with the example numbers in the description).
row,MIC50,Structure (SMILES)
1,~0.1 µg/mL,"Cc1c(SCCCSc2nc3ccccc3s2)ccnc1CSc1nc2ccccc2[nH]1 [Compound 10, 2-{[[4-[(5-Benzothiazol-2-yl)-1,5-dithiapent-1-yl]-3-methyl-2-pyridinyl]methyl]thio}-1 H-benzimidazole]"
2,~0.1 µg/mL,Cc1c(SCCCSc2ccncc2)ccnc1CSc1nc2cccnc2[nH]1 [Compound 14]
3,~0.1 µg/mL,"Cc1c(SCCCSc2nc3ccccc3o2)ccnc1CSc1nc2ccccc2[nH]1 [Compound 11, 2-{[[4-[(5-Benzoxazol-2-yl)-1,5-dithiapent-1-yl]-3-methyl-2-pyridinyl]methyl]thio}1 H-benzimidazole]"
4,~0.1 µg/mL,Cc1c(SCCCCOc2ccccc2)ccnc1CSc1nc2ccccc2[nH]1 [Compound 2]
5,~0.05 µg/mL,Cc1c(SCCOc2ccccc2)ccnc1CSc1nc2ccccc2[nH]1 [Compound 1]
6,~0.05 µg/mL,"Cc1c(SCCCSCc2ccc(CN(C)C)o2)ccnc1CSc1nc2ccccc2[nH]1 [Compound 6, trihydrochloride]"
7,~0.05 µg/mL,"Cc1scnc1CCSCCCSc1ccnc(CSc2nc3ccccc3[nH]2)c1C.Cl.Cl.Cl [Compound 7, 2-{[[3-Methyl-4-[7-(5-methylthiazol-4-yl)-1,5 dithiahept-1-yl]-2-pyridinyl]methyl]thio}-1 H-benzimidazole trihydrochloride]"
8,~0.05 µg/mL,"Cc1c(SCCCSCc2ccco2)ccnc1CSc1nc2ccccc2[nH]1 [Compound 5, 2-{[[4-[(6-Furan-2-yl)-1,5-dithiahex-1-yl]-3-methyl-2-pyridinyl]methyl]thio}-1 H-benzimidazole]"
9,~0.05 µg/mL,"Cc1ccc(CSCCSc2ccnc(CSc3nc4ccccc4[nH]3)c2C)cc1 [Compound 3, 2-{[[3-Methyl-4-[5-(4-methylphenyl)-1,4-dithia-pent-1-yl]-2-pvridinyl]methyl]thio}-1 H-benzimidazole]"
10,~0.05 µg/mL,"Cc1c(SCCCSC(=S)N(C)C)ccnc1CSc1nc2ccccc2[nH]1 [Compound 4, 2-{[[4-[3-Dimethvldithiocarbamoylpropylthio]-3-methyl-2-pyridinyl]methyl]thio}1 H-benzimidazole]"
